Assay results from the NIST ThermoML archive (doi:10.1016/j.fluid.2013.03.001).

What was measured:
[1] = molar heat capacity at constant pressure; settings: 101.33 kPa, Liquid, Small sample (50 mg) DSC
[2] = 101.33 kPa, Liquid; for viscosity: Concentric cylinders viscometry; for mass density: Vibrating tube method

CCCCn1cc[n+](C)c1.[Cl][Fe-]([Cl])([Cl])[Cl] [1-butyl-3-methylimidazolium tetrachloroferrate]
Settings | mass density [kg/m3] | molar heat capacity at constant pressure [J/K/mol] | viscosity [mPa·s]
[1], 308.16 K | – | 436.39 | –
[1], 313.16 K | – | 446.09 | –
[1], 318.16 K | – | 446.39 | –
[1], 323.16 K | – | 447.13 | –
[1], 328.22 K | – | 449.63 | –
[1], 333.22 K | – | 451.03 | –
[1], 338.19 K | – | 452.53 | –
[1], 343.18 K | – | 456.2 | –
[1], 348.25 K | – | 457.4 | –
[1], 353.18 K | – | 457.95 | –
[1], 358.25 K | – | 459.31 | –
[1], 363.18 K | – | 460.92 | –
[1], 368.17 K | – | 461.57 | –
[1], 373.21 K | – | 462.88 | –
[1], 378.2 K | – | 463.64 | –
[1], 383.17 K | – | 465.82 | –
[1], 388.2 K | – | 465.66 | –
[1], 393.17 K | – | 466.11 | –
[1], 398.2 K | – | 467.83 | –
[1], 403.2 K | – | 469.12 | –
[1], 408.16 K | – | 469.7 | –
[1], 413.19 K | – | 469.42 | –
[1], 418.19 K | – | 471.44 | –
[1], 423.22 K | – | 470.84 | –
[2], 278.15 K | – | – | 103.3
[2], 283.15 K | – | – | 79.5
[2], 288.15 K | – | – | 62.6
[2], 293.15 K | 1370 | – | 50.2
[2], 294.15 K | 1369.2 | – | –
[2], 295.15 K | 1368.3 | – | –
[2], 296.15 K | 1367.5 | – | –
[2], 297.15 K | 1366.7 | – | –
[2], 298.15 K | 1365.8 | – | 41
[2], 299.15 K | 1365 | – | –
[2], 300.15 K | 1364.2 | – | –
[2], 301.15 K | 1363.3 | – | –
[2], 302.15 K | 1362.5 | – | –
[2], 303.15 K | 1361.7 | – | 33.9
[2], 304.15 K | 1360.9 | – | –
[2], 305.15 K | 1360.1 | – | –
[2], 306.15 K | 1359.2 | – | –
[2], 307.15 K | 1358.4 | – | –
[2], 308.15 K | 1357.6 | – | 28.5
[2], 309.15 K | 1356.8 | – | –
[2], 310.15 K | 1356 | – | –
[2], 311.15 K | 1355.1 | – | –
[2], 312.15 K | 1354.3 | – | –
[2], 313.15 K | 1353.5 | – | 24.2
[2], 314.15 K | 1352.7 | – | –
[2], 315.15 K | 1351.9 | – | –
[2], 316.15 K | 1351.1 | – | –
[2], 317.15 K | 1350.3 | – | –
[2], 318.15 K | 1349.5 | – | 20.8
[2], 319.15 K | 1348.7 | – | –
[2], 320.15 K | 1347.8 | – | –
[2], 321.15 K | 1347 | – | –
[2], 322.15 K | 1346.2 | – | –
[2], 323.15 K | 1345.4 | – | 18.1
[2], 324.15 K | 1344.6 | – | –
[2], 325.15 K | 1343.8 | – | –
[2], 326.15 K | 1343 | – | –
[2], 327.15 K | 1342.2 | – | –
[2], 328.15 K | 1341.4 | – | 15.8
[2], 329.15 K | 1340.6 | – | –
[2], 330.15 K | 1339.8 | – | –
[2], 331.15 K | 1339 | – | –
[2], 332.15 K | 1338.2 | – | –
[2], 333.15 K | 1337.4 | – | 13.9
[2], 334.15 K | 1336.6 | – | –
[2], 335.15 K | 1335.9 | – | –
[2], 336.15 K | 1335.1 | – | –
[2], 337.15 K | 1334.3 | – | –
[2], 338.15 K | 1333.5 | – | 12.4
[2], 339.15 K | 1332.7 | – | –
[2], 340.15 K | 1331.9 | – | –
[2], 341.15 K | 1331.1 | – | –
[2], 342.15 K | 1330.3 | – | –
[2], 343.15 K | 1329.5 | – | 11.1
[2], 344.15 K | 1328.7 | – | –
[2], 345.15 K | 1328 | – | –
[2], 346.15 K | 1327.2 | – | –
[2], 347.15 K | 1326.4 | – | –
[2], 348.15 K | 1325.6 | – | 10
[2], 349.15 K | 1324.8 | – | –
[2], 350.15 K | 1324 | – | –
[2], 351.15 K | 1323.3 | – | –
[2], 352.15 K | 1322.5 | – | –
[2], 353.15 K | 1321.7 | – | 9
[2], 354.15 K | 1320.9 | – | –
[2], 355.15 K | 1320.1 | – | –
[2], 356.15 K | 1319.4 | – | –
[2], 357.15 K | 1318.6 | – | –
[2], 358.15 K | 1317.8 | – | 8.2
[2], 359.15 K | 1317 | – | –
[2], 360.15 K | 1316.3 | – | –
[2], 361.15 K | 1315.5 | – | –
[2], 362.15 K | 1314.7 | – | –
[2], 363.15 K | 1313.9 | – | 7.5
[2], 368.15 K | – | – | 6.9
[2], 373.15 K | – | – | 6.3
